Test results published in ChEMBL document CHEMBL5247649, “Comparative Efficacy and Selectivity of Pharmacological Inhibitors of DYRK and CLK Protein Kinases” (J Med Chem, 2023).

Legend:
in vitro = conditions: mouse, ht-22
[1] = target: Dual specificity protein kinase CLK2 (Homo sapiens, UniProt P49760); experiment: biochemical
[2] = target: T1, Dual specificity protein kinase CLK1 (Homo sapiens, UniProt P49759); experiment: biochemical; format: cell-based, Sf9
[3] = target: T2, Dual specificity tyrosine-phosphorylation-regulated kinase 2 (Homo sapiens, UniProt Q92630); experiment: biochemical; format: cell-based, Sf9
T2 sequence (Q92630 whole entry): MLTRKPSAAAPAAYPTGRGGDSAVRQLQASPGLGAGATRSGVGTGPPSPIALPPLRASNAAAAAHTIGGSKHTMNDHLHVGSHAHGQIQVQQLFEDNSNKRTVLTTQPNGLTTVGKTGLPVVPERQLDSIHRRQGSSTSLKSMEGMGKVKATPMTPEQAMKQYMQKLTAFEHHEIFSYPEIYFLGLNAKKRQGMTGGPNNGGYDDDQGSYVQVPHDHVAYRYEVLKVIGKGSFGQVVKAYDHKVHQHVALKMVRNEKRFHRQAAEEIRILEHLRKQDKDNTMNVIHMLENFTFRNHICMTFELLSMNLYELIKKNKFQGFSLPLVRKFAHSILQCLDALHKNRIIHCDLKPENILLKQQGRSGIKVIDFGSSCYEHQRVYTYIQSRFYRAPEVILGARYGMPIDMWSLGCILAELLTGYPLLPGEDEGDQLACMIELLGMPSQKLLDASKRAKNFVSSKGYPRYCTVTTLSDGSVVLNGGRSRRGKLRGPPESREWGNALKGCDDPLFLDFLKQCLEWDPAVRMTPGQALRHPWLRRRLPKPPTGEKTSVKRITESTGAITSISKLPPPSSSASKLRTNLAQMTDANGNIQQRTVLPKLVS

[4] = target: T3, Dual specificity tyrosine-phosphorylation-regulated kinase 4 (Homo sapiens, UniProt Q9NR20); experiment: biochemical; format: cell-based, Sf9
T3 sequence (Q9NR20 whole entry): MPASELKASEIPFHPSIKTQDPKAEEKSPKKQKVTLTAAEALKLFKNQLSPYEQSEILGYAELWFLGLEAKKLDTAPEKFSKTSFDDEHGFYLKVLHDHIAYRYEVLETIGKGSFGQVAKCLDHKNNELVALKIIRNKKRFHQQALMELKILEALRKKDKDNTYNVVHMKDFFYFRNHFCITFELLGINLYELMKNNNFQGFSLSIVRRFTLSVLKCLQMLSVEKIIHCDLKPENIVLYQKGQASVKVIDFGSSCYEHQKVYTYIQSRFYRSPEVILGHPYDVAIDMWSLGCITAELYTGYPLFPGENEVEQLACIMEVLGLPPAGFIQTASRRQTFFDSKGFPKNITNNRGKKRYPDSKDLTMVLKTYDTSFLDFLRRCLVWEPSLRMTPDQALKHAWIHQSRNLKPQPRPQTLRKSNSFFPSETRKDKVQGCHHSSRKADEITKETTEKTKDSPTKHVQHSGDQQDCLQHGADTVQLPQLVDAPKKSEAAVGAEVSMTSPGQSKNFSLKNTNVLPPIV

[5] = target: Cyclin-dependent kinase 5/CDK5 activator 1 (Homo sapiens, UniProt Q00535); experiment: biochemical; format: cell-based, Sf9
[6] = target: Dual specificity protein kinase CLK3 (Homo sapiens, UniProt P49761); experiment: biochemical; format: cell-based, Sf9
[7] = target: T4, Dual specificity tyrosine-phosphorylation-regulated kinase 1A (Homo sapiens, UniProt Q13627); experiment: biochemical
[8] = target: T5, Dual specificity tyrosine-phosphorylation-regulated kinase 3 (Homo sapiens, UniProt O43781); experiment: biochemical; format: cell-based, Sf9
T5 sequence (O43781 whole entry): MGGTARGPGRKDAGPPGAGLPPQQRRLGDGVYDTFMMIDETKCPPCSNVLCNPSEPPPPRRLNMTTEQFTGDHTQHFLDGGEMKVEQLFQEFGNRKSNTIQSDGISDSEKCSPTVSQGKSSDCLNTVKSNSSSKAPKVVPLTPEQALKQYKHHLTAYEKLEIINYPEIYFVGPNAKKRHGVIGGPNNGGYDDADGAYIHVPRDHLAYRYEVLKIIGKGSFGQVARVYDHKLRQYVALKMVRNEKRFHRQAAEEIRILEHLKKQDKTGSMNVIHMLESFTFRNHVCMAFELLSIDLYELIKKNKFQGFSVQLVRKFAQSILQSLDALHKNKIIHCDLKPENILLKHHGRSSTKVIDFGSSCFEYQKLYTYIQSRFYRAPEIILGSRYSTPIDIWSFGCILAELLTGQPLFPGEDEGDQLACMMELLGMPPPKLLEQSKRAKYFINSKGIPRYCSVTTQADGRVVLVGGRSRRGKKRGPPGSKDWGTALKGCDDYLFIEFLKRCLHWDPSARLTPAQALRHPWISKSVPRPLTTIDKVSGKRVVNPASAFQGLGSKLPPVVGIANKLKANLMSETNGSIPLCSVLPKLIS

[9] = target: Casein kinase I isoform epsilon (Homo sapiens, UniProt P49674); experiment: biochemical; format: cell-based, Sf9
[10] = target: Dual specificity protein kinase CLK4 (Homo sapiens, UniProt Q9HAZ1); experiment: biochemical
[11] = target: T6, Glycogen synthase kinase-3 beta (Homo sapiens, UniProt P49841); experiment: biochemical; format: cell-based, Sf9
[12] = target: T1, Dual specificity protein kinase CLK1
[13] = target: T6, Glycogen synthase kinase-3 beta
[14] = target: T1, Dual specificity protein kinase CLK1; experiment: biochemical; format: cell-based, Sf9; conditions: read-out: IC50
[15] = target: T4, Dual specificity tyrosine-phosphorylation-regulated kinase 1A

T6 sequence (P49841 whole entry): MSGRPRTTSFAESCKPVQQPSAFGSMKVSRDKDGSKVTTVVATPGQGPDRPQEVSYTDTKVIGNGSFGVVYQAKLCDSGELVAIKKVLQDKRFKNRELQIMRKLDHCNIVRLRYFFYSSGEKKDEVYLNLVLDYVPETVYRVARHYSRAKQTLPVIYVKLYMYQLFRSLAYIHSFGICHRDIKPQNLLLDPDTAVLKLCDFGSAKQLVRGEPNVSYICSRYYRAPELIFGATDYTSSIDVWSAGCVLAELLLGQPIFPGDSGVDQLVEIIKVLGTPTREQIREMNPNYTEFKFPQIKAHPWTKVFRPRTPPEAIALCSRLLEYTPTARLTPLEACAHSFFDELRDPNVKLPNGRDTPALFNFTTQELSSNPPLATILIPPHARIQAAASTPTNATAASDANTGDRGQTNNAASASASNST
T1 sequence (P49759 whole entry): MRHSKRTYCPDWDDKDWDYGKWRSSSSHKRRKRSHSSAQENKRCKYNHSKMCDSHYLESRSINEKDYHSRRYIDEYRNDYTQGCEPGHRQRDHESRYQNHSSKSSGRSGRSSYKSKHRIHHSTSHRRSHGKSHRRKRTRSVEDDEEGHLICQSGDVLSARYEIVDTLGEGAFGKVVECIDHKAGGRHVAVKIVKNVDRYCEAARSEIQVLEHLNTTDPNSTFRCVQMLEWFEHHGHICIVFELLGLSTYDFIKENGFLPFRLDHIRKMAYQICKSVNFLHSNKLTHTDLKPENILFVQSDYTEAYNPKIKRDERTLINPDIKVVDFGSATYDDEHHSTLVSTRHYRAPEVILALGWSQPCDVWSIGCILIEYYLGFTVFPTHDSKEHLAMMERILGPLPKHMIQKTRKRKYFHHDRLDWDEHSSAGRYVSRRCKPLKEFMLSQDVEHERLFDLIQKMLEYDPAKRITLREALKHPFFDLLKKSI
Chain of Casein kinase I isoform epsilon (P49674 whole entry, canonical isoform): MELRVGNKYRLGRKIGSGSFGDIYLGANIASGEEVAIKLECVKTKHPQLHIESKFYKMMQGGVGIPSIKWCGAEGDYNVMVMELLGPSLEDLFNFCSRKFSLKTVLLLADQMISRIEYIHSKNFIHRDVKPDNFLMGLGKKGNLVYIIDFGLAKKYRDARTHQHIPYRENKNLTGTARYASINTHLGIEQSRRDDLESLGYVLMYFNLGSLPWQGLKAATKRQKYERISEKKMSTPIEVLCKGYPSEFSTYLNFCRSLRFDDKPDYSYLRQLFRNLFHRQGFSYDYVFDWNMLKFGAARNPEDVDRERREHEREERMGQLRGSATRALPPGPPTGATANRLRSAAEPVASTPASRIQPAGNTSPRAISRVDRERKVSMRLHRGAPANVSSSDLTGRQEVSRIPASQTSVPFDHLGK
Chain of Dual specificity protein kinase CLK4 (Q9HAZ1 whole entry): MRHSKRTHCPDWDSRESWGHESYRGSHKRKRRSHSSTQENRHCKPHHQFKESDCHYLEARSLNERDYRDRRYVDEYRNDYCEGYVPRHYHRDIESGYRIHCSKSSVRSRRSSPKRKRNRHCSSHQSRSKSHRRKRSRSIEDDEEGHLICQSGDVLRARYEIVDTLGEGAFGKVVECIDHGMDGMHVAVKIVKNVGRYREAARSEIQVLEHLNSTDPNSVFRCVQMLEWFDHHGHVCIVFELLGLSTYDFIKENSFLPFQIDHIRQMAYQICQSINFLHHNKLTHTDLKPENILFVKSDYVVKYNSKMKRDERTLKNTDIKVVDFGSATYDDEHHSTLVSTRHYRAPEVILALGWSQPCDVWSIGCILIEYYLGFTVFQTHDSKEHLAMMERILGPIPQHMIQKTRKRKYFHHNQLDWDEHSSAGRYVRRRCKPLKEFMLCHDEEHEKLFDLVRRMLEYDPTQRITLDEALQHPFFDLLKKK
Chain of Dual specificity protein kinase CLK2 (P49760 whole entry): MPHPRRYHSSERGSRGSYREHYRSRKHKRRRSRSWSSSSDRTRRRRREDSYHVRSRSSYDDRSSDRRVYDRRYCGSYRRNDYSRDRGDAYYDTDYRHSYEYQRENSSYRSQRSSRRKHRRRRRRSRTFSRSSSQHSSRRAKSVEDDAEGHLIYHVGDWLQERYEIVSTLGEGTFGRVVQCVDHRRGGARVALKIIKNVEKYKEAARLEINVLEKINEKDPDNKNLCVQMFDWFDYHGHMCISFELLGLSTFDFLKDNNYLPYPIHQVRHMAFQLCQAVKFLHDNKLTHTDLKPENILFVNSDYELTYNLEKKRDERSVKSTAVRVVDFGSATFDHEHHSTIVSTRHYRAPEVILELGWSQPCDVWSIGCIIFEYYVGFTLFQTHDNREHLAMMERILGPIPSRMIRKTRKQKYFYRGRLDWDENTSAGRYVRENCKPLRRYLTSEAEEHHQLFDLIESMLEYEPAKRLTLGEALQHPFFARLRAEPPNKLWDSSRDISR
Chain of Cyclin-dependent kinase 5/CDK5 activator 1 (Q00535 whole entry): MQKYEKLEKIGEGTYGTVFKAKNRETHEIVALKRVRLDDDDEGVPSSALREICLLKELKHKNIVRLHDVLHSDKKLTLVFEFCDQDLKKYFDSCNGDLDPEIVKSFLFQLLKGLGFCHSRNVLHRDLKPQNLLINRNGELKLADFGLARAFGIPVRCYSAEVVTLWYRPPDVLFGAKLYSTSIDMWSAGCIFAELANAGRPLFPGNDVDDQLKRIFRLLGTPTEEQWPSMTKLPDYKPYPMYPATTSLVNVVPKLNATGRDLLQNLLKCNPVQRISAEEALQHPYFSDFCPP
Chain of Cyclin-dependent kinase 5/CDK5 activator 1 (Q15078 whole entry, further chain): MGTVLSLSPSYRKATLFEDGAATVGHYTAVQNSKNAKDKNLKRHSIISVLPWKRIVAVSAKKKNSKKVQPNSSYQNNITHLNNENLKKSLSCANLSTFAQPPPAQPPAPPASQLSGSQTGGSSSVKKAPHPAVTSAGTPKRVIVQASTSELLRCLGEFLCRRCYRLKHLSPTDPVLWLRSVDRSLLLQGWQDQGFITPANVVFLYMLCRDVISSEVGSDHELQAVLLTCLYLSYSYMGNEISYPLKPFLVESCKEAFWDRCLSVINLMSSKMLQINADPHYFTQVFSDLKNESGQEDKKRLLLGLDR
Chain of Dual specificity protein kinase CLK3 (P49761 whole entry): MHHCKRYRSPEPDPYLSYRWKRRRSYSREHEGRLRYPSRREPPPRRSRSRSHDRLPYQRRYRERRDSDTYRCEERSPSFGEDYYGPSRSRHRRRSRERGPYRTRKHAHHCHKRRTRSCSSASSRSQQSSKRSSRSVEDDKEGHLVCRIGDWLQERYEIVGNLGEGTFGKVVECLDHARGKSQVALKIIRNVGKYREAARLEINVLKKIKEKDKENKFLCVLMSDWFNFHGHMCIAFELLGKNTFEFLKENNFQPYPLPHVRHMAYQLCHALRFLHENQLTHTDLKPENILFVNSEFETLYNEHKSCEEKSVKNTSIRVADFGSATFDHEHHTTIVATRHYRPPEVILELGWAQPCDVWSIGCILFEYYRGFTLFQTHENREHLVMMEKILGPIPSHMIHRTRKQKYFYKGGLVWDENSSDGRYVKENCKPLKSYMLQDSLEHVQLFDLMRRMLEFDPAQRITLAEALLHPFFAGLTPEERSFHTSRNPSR

Structure (SMILES) | IC50 at 48 h (in vitro) [µM] | IC50 [1] [µM] | IC50 [2] [µM] | IC50 [3] [µM] | IC50 [4] [µM] | IC50 [5] [µM] | IC50 [6] [µM] | IC50 [7] [µM] | IC50 [8] [µM] | IC50 [9] [µM] | IC50 [10] [µM] | IC50 [11] [µM] | Kd [12] [nM] | Kd [13] [µM] | IC50 [14] [µM] | IC50 [15] [µM]
CCNc1cc(Nc2ccc(C(=O)N3CCC(N4CCOCC4)CC3)cc2OC)nc2[nH]cc(C(F)(F)F)c12 | 19.9 | 0.0405 | 0.0713 | > 10 | > 10 | > 10 | 2.05 |  | 7.15 | 7.99 | 0.0211 | > 10 | 1.39 | > 10 | 0.0929 | 
CCOc1ccc2nc(N3CCCN(C(=S)Nc4ccccc4F)CC3)c(C#N)cc2c1 | > 100 | > 10 | > 10 | > 10 | > 10 | > 10 | > 10 | > 10 | > 10 | > 10 | > 10 | > 10 |  |  |  | 
CN1CCN(C(=O)C(C)(C)c2ccc(C(=O)Cc3cn4cc(-c5ccncc5)ccc4n3)cc2)CC1 | 7.9 | 0.147 | 0.107 | > 10 | > 10 | > 10 | 0.74 | 0.253 | > 10 | > 10 | 0.0491 | > 10 |  |  | 0.121 | 0.0728
CC(C)(c1ccc(O)cc1)c1ccc(O)cc1 [BISPHENOL A] | 97 | > 10 | > 10 | > 10 | > 10 | > 10 | > 10 | > 10 | > 10 | > 10 | > 10 | > 10 |  |  |  | 
O=C(O[C@@H]1Cc2c(O)cc(O)cc2O[C@@H]1c1cc(O)c(O)c(O)c1)c1cc(O)c(O)c(O)c1 [EPIGALOCATECHIN GALLATE] | 23.8 | 1.32 | 0.0716 | 2 | 5.2 | 0.431 | 2.58 | 0.491 | 1.62 | 0.365 | 0.368 | 6.27 |  |  | > 10 | 0.766
COc1cc(CCc2c(O)ccc(O[C@@H]3O[C@H](CO)[C@@H](O)[C@H](O)[C@H]3O)c2C(C)=O)ccc1O [SCORZODIHYDROSTILBENE A] | > 100 | > 10 | > 10 | > 10 | > 10 | > 10 | > 10 | 2.3 | > 10 | > 10 | > 10 | > 10 |  |  |  | 

Continued, in another order:

IC50 at 48 h (in vitro) [µM] | IC50 [1] [µM] | IC50 [2] [µM] | IC50 [3] [µM] | IC50 [4] [µM] | IC50 [5] [µM] | IC50 [6] [µM] | IC50 [7] [µM] | IC50 [8] [µM] | IC50 [9] [µM] | IC50 [10] [µM] | IC50 [11] [µM] | Kd [12] [nM] | Kd [13] [µM] | IC50 [14] [µM] | Structure (SMILES) | IC50 [15] [µM]
> 100 | > 10 | > 10 | > 10 | > 10 | > 10 | > 10 | > 10 | > 10 | > 10 | > 10 | > 10 |  |  |  | CC(=O)c1nccc2c1[nH]c1ccccc12 | 
0.16 | 0.0011 | 0.0188 | 0.118 | 2.59 | 0.0245 | 0.0119 |  | 0.0104 | 0.405 | 0.0069 | 0.0176 | 0.056 | 0.00393 | 0.0308 | Cc1ccc([N+](=O)[O-])cc1S(=O)(=O)N(C)/N=C/c1cnc2ccc(Br)cn12 | 
30.1 | 0.269 | 0.125 | > 10 | > 10 | > 10 | > 10 | 0.435 | > 10 | > 10 | 0.0909 | > 10 |  |  |  | Cc1cccc(N(C)c2nccc(-c3cnn4ncccc34)n2)c1 | 
2.6 |  |  | 3.04 | > 10 | > 10 |  | 1.14 | > 10 | > 10 | 0.0839 | 2.86 |  |  |  | Cn1cc(-c2ccc3occ(-c4cccc(-c5ccncc5)c4)c3n2)cn1 | 
8.1 | 0.772 | 0.607 | > 10 | > 10 | > 10 | 2.41 | 8.26 | > 10 | > 10 | 0.672 | 1.33 |  |  |  | CCN(CC)Cc1ccc(OC)c(-c2cc3c(-c4ccc(C(=O)O)c(C(C)C)c4)ccnc3[nH]2)c1 | 
60 | 5.96 | > 10 | > 10 | > 10 | > 10 | > 10 | > 10 | > 10 | > 10 | > 10 | 5.26 |  |  |  | Cc1cc(C(=O)NC2Nc3cccc(C)c3N2[C@H]2CCCCN(C(=O)/C=C/CN(C)C)C2)ccn1 (stereo not given in full) | 
1 | > 10 | 6.07 | 1.75 | > 10 | > 10 | > 10 | 3.09 | > 10 | 4.38 | > 10 | > 10 |  |  |  | O=C1Nc2cc(S(=O)(=O)Cc3c(Cl)cccc3Cl)ccc2S/C1=C\c1ccc(O)c([N+](=O)[O-])c1 | 
52.4 | > 10 | > 10 | 1.06 | > 10 | > 10 | > 10 |  | 4.26 | > 10 | 9.75 | > 10 | > 1000 | > 10 | 4.92 | COc1cc(/C=C/C(=O)CC(=O)/C=C/c2ccc(O)c(OC)c2)ccc1O [CURCUMIN] | 
